Among the test systems are SK-MEL-2 melanoma; MDA-MB-231 breast; HOP-92 NSCLC; SR leukemia; OVCAR-4 ovarian; MCF7 breast; NCI-H226 lung; SN12C renal; SNB-19 CNS; HCT-15 colon.
What all share (test): NCI tumour cell line growth inhibition, 48 h

Here are results for 13 compounds from PubChem BioAssay (NCI).

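Interpolation was linear, between the two tested concentrations surrounding the appropriate level; five concentrations were tested over 48 hours in 96-well plates. At the TGI there is no net growth.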 Bounds are passed on as bounds.

For `CC(C)(Oc1ccc(Cl)cc1)C(=O)N(C(=O)N1CCC(c2ccccc2)CC1)c1ccccc1`, the TGI in the experiment with SK-MEL-2 melanoma, in the experiment with MDA-MB-231 breast, with HOP-92 NSCLC, in the experiment on SR leukemia, in the experiment with OVCAR-4 ovarian and with MCF7 breast was greater than 100 µM in each case. For the same compound, the TGI with NCI-H226 lung, in the experiment with SN12C renal, in the experiment with SNB-19 CNS and in the experiment with HCT-15 colon was greater than 100 µM throughout.

For the compound `O=C(Cn1c(C(=O)/C=C/c2cccs2)nc2ccccc21)c1ccc(Cl)cc1`, the TGI was determined as 20.8 µM in the experiment on SK-MEL-2 melanoma; 46 µM in the experiment with MDA-MB-231 breast; 93 µM with HOP-92 NSCLC; 22 µM with SR leukemia; 76.9 µM in the experiment on OVCAR-4 ovarian; 48.4 µM with MCF7 breast. The TGI is greater than 100 µM in the experiment with NCI-H226 lung, 50.1 µM in the experiment on SN12C renal, greater than 100 µM in the experiment on SNB-19 CNS and 83 µM in the experiment on HCT-15 colon.

For `C=C(C)C(O)C(O)c1c(OC)ccc2ccc(=O)oc12` (stereo not given), the TGI with SK-MEL-2 melanoma, with MDA-MB-231 breast, in the experiment with HOP-92 NSCLC, in the experiment with SR leukemia, in the experiment with OVCAR-4 ovarian and in the experiment with MCF7 breast was greater than 100 µM in each case. The TGI in the experiment on NCI-H226 lung, in the experiment on SN12C renal, in the experiment with SNB-19 CNS and with HCT-15 colon was greater than 100 µM throughout.

With `CCOC(=O)c1cc2c(C(=O)c3ccc([N+](=O)[O-])cc3)c(C(C)=O)ccc2[nH]1`, the TGI in the experiment on SK-MEL-2 melanoma is greater than 100 µM; in the experiment with MDA-MB-231 breast it was 53.4 µM; in the experiment on HOP-92 NSCLC, 44.6 µM; in the experiment with SR leukemia it was greater than 100 µM; in the experiment with OVCAR-4 ovarian, greater than 100 µM; in the experiment with MCF7 breast, greater than 100 µM. The TGI is greater than 100 µM in the experiment on NCI-H226 lung, greater than 100 µM in the experiment with SN12C renal, 87.9 µM in the experiment with SNB-19 CNS and greater than 100 µM in the experiment on HCT-15 colon.

On to `O=c1oc2ccccc2cc1-c1cn2cc(Cl)ccc2n1`, for which the TGI with SK-MEL-2 melanoma is 24.9 µM; in the experiment with MDA-MB-231 breast, 23.1 µM; with HOP-92 NSCLC it was 36.4 µM; with SR leukemia it was greater than 39.2 µM; in the experiment with OVCAR-4 ovarian, 12.8 µM; in the experiment with MCF7 breast, 2.12 µM. Besides, the TGI with NCI-H226 lung is greater than 57.3 µM; in the experiment on SN12C renal, 22.4 µM; in the experiment on SNB-19 CNS it was 3.66 µM; in the experiment on HCT-15 colon, 20.7 µM.

In the case of `COC(=O)[C@H]1CO[C@H]2C/C(C)=C/CC/C(C)=C/CC[C@@]3(C)O[C@@H]3C[C@H]21`, the TGI with SK-MEL-2 melanoma was greater than 50 µM; with MDA-MB-231 breast, 40.6 µM; in the experiment on HOP-92 NSCLC, greater than 50 µM; in the experiment on SR leukemia it was 27.1 µM; in the experiment on OVCAR-4 ovarian, greater than 50 µM; in the experiment on MCF7 breast it was greater than 50 µM. In addition, the TGI in the experiment on NCI-H226 lung was 29.2 µM; in the experiment with SN12C renal, 24.3 µM; in the experiment with SNB-19 CNS, greater than 50 µM; in the experiment with HCT-15 colon it was 19.9 µM.

Regarding `CCOC(=O)c1cnc2oc3ccc(O)cc3c2c1-c1ccccc1`, the TGI with SK-MEL-2 melanoma was greater than 100 µM; in the experiment on MDA-MB-231 breast, 84.5 µM; in the experiment with HOP-92 NSCLC, greater than 100 µM; with SR leukemia, greater than 100 µM; in the experiment with OVCAR-4 ovarian it was greater than 100 µM; in the experiment on MCF7 breast, greater than 100 µM. Further, the TGI in the experiment on NCI-H226 lung, with SN12C renal, in the experiment with SNB-19 CNS and with HCT-15 colon was greater than 100 µM throughout.

Regarding `Cc1c2c(n(CCc3ccc(Cl)cc3)c1C)NC(c1ccccc1)C(C#N)S2(=O)=O` (stereo not given), the TGI in the experiment with SK-MEL-2 melanoma was greater than 68.9 µM; with MDA-MB-231 breast, greater than 59.3 µM; with HOP-92 NSCLC, greater than 100 µM; in the experiment on SR leukemia, 38.2 µM; with OVCAR-4 ovarian, greater than 100 µM; in the experiment on MCF7 breast, greater than 60.1 µM. For the same compound, the TGI in the experiment with NCI-H226 lung, with SN12C renal, with SNB-19 CNS and in the experiment with HCT-15 colon was greater than 100 µM in each case.

As for `CCOC(=O)c1cc2c3c(c(C(C)=O)c(O)c2[nH]1)N(CC(C)CC)CC3` (stereo not given), the TGI in the experiment on SK-MEL-2 melanoma, in the experiment on MDA-MB-231 breast, in the experiment on HOP-92 NSCLC, in the experiment with SR leukemia, in the experiment with OVCAR-4 ovarian and with MCF7 breast was greater than 100 µM each time. Besides, the TGI in the experiment on NCI-H226 lung, in the experiment with SN12C renal, in the experiment on SNB-19 CNS and in the experiment with HCT-15 colon was greater than 100 µM in each case.

Consider `CC1=NN(c2nc(N)nc(/C(C#N)=C/c3cccn3-c3cc(Cl)cc(Cl)c3)n2)C(C)(C)C1`, for which the TGI in the experiment with SK-MEL-2 melanoma, in the experiment with MDA-MB-231 breast, in the experiment on HOP-92 NSCLC, in the experiment on SR leukemia, with OVCAR-4 ovarian and in the experiment on MCF7 breast was greater than 100 µM each time. The TGI in the experiment with NCI-H226 lung, in the experiment with SN12C renal, in the experiment with SNB-19 CNS and in the experiment on HCT-15 colon was greater than 100 µM each time.

In the case of `O=C1/C(=N\S(=O)(=O)c2ccccc2)C([n+]2ccc(Cc3ccccc3)cc2)=C([O-])c2ccccc21`, the TGI was 3 µM in the experiment with SK-MEL-2 melanoma; 9.89 µM in the experiment with MDA-MB-231 breast; 12.7 µM in the experiment with HOP-92 NSCLC; greater than 100 µM with SR leukemia; 3.13 µM in the experiment with OVCAR-4 ovarian; 2.12 µM in the experiment with MCF7 breast. Moreover, the TGI with NCI-H226 lung came out at 3.73 µM; in the experiment on SN12C renal, 3.12 µM; in the experiment on SNB-19 CNS it was 3.3 µM; in the experiment with HCT-15 colon, 3.36 µM.

For the compound `CCN(C(=S)N[C@H](C(=O)N[C@@H](C)C(=O)OC)C(C)C)c1ccccc1`, the TGI in the experiment on SK-MEL-2 melanoma is greater than 100 µM; in the experiment with MDA-MB-231 breast, greater than 100 µM; with HOP-92 NSCLC, greater than 100 µM; in the experiment on SR leukemia, 52.7 µM; with OVCAR-4 ovarian it was greater than 100 µM; in the experiment with MCF7 breast, greater than 100 µM. The TGI with NCI-H226 lung, with SN12C renal, in the experiment with SNB-19 CNS and in the experiment on HCT-15 colon was greater than 100 µM throughout.

As for `O=C(Nc1ccccc1)N(CCCCN(Cc1ccccc1)C(=O)Nc1ccccc1)Cc1ccccc1`, the TGI with SK-MEL-2 melanoma, with MDA-MB-231 breast, in the experiment with HOP-92 NSCLC, with SR leukemia, in the experiment with OVCAR-4 ovarian and in the experiment with MCF7 breast was greater than 100 µM throughout. For the same compound, the TGI with NCI-H226 lung, in the experiment with SN12C renal, with SNB-19 CNS and in the experiment with HCT-15 colon was greater than 100 µM in each case.
